# Reference: patent US12616806B2, “Nasal administration” (OptiNose Inc., priority 2013, dated 2026)
# Columns and labels:
# episodic migraine = conditions: continuous carbon dioxide infusion; cited from earlier work
# [1] = cited from earlier work
# [2] = system: chronic rhinosinusitis (CRS) with nasal polyps; experiment: Example #12: placebo controlled study in chronic rhinosinusitis with nasal polyps; type: in vivo, human; conditions: after 12 weeks
Structure (SMILES),two-hour pain free response (episodic migraine),dips in mucosal pH ([1]; 5 L/min carbon dioxide in concentrations of 15% and 45%),"decrease of extracellular nasal mucosal pH ([1]; 5 L/min, 3 s duration, 20% carbon dioxide, basal ~7.4)",change in summed polyp score [2]
O=C=O [carbon dioxide],25.0%,0.1-0.2 pH units,0.05-0.1 pH units,–
C[C@@H]1C[C@H]2[C@@H]3C[C@H](F)C4=CC(=O)C=C[C@]4(C)[C@@]3(F)[C@@H](O)C[C@]2(C)[C@@]1(O)C(=O)SCF [fluticasone],–,–,–,−0.98
